Laboratory results reported in US10946074B2, “GLP-1 derivatives and uses thereof” (Novo Nordisk A/S, priority 2016, dated 2021).
Where two headings read alike, the source gives them in different places. Starred links: 1 amine or outer side, 2 acyl side, 3 side chain; linkers in the order of their positions; H or OH if unused. Residues, ends and D or L forms follow the SMILES beside them. Groups on a side chain read outwards from the residue. *: point of attachment. γGlu = O=C(O)[C@H](CCC(=O)[*:2])N[*:1]; C14 diacid = O=C(O)CCCCCCCCCCCCC(=O)*; AEEA = NCCOCCOCC(=O)O

What was measured:
human GLP-1 receptor [1] = target: T1, human GLP-1 receptor (Homo sapiens, UniProt P43220); assay: GLP-1 receptor binding, competitive binding assay with 125I-GLP-1 on isolated membranes (SPA)
T1 construct: expressed in transfected cells; host or cells: membranes of BHK cells (parent BHKTS13), clone FCW467-12A
Procedure: The receptor binding is reported as the concentration at which half of the labelled ligand is displaced from the receptor, the IC50 value.
Buffer 1 consisted of 20 mM Na-HEPES plus 10 mM EDTA and pH was adjusted to 7.4. Buffer 2 consisted of 20 mM Na-HEPES plus 0.1 mM EDTA and pH was adjusted to 7.4. Assay buffer consisted of 50 mM HEPES supplemented with 5 mM EGTA, 5 mM MgCl2, 0.005% w/v Tween 20 and pH was adjusted to 7.4. An 8% albumin stock consisted of HSA dissolved at 8% (w/v) in assay buffer. An 0.02% albumin stock consisted of HSA dissolved at 0.02% (w/v) in assay buffer.
To make a membrane preparation the cells were grown to approximately 80% confluence. The cells were washed twice in phosphate-buffered saline and harvested. The cells were pelleted using a brief centrifugation and the cell pellet was kept on ice. The cell pellet was homogenised with ULTRA-THURRAX™ dispersing instrument for 20-30 seconds in a suitable amount of buffer 1 (e.g., 10 ml). The homogenate was centrifuged for 15 minutes. The pellet was re-suspended (homogenised) in 10 ml buffer 2 and centrifuged. This step was repeated once more. The resulting pellet was re-suspended in buffer 2 and the protein concentration was determined. The membranes were aliquoted and stored at minus 80° C.
For the receptor binding assay in the presence of low HSA (0.005% (w/v)) 50 μl of the assay buffer was added to each well of an assay plate. Assay continued with step 3.
For the receptor binding assay in the presence of high HSA (2% (w/v)) 50 μl of the 8% (w/v) albumin stock was added to each well of an assay plate. Assay continued with step 3.
Cell membrane aliquots were thawed and diluted to their working concentration. Fifty μl were added to each well in the assay plate.
WGA SPA beads were suspended in assay buffer at 20 mg/ml. The suspension was diluted to 10 mg/ml in assay buffer just prior to addition to the assay plate. Fifty μl were added to each well in the assay plate.
A 25 μl aliquot was reserved for measuring total counts/well.
The assay plate was incubated for 2 h at 30° C.
The assay plate was centrifuged for 10 min.
The assay plate was read in a Packard TopCount NXT instrument.
Individual replicates were analysed using non-linear regression in GraphPad Prism. IC50 values were calculated by the software and reported in nM. A minimum of two replicates was measured for each sample. The reported values are averages of all of the measured values for each compound.

human GLP-1 receptor [2] = target: T1, human GLP-1 receptor; assay: In vitro potency, CRE luciferase reporter gene assay in BHK cells expressing the human GLP-1 receptor; format: cell-based; conditions: 3 h, 0% HSA, average of at least three replicates
Procedure: When assay incubation is completed the luciferase substrate (luciferin) is added and the enzyme converts luciferin to oxyluciferin to produce bioluminescence. The luminescence is measured as the readout for the assay.
The cells were cultured at 5% CO2 in cell culture medium. They were aliquoted and stored in liquid nitrogen. Before each assay an aliquot was taken up and washed twice in PBS before being suspended at the desired concentration in the assay specific buffer. For 96-well plates the suspension was made to give a final concentration of 5×10^3 cells/well.
Assay medium consisted of DMEM w/o phenol red, 10 mM Hepes and 1× Glutamax. The assay buffer consisted of 2% w/v ovalbumin and 0.2% v/v Pluronic F-68 in assay medium.
3) Cells were counted and adjusted to 5×10^3 cells/50 μl (1×10^5 cells/ml) in assay medium. A 50 μl aliquot of cells was transferred to each well in the assay plate.
4) Stocks of the test compounds and reference compounds were diluted to a concentration of 0.2 μM in assay buffer. […] Compounds were tested at the following final concentrations: 1×10^−7 M, 1×10^−8 M; 1×10^−9 M, 1×10^−10 M, 1×10^−11 M, 1×10^−12 M, 1×10^−13 M, and 1×10^−14 M. 6) The assay plate was incubated for 3 h in a 5% CO2 incubator at 37° C. […] 8) A 100 μl aliquot of steadylite plus reagent was added to each well of the assay plate. 9) Each assay plate was covered with aluminum foil to protect it from light and shaken for 30 min at room temperature. 10) Each assay plate was read in a BioTek Synergy 2 Multi-Mode Reader. Calculations and Results
The data from the BioTek Synergy 2 Multi-Mode Reader were transferred to GraphPad Prism software. The software performs a non-linear regression (log(agonist) vs. response (three parameters)).
A minimum of three replicates were measured for each sample. The reported EC50 values are averages of the measured values for each compound.

[3] = high HSA (2.0% (w/v) final assay concentration), read-out: GLP-1 receptor binding High HSA IC50
[4] = low HSA (max. 0.001% (w/v) final assay concentration), read-out: GLP-1 receptor binding Low HSA IC50

T1 sequence (P43220 24-463): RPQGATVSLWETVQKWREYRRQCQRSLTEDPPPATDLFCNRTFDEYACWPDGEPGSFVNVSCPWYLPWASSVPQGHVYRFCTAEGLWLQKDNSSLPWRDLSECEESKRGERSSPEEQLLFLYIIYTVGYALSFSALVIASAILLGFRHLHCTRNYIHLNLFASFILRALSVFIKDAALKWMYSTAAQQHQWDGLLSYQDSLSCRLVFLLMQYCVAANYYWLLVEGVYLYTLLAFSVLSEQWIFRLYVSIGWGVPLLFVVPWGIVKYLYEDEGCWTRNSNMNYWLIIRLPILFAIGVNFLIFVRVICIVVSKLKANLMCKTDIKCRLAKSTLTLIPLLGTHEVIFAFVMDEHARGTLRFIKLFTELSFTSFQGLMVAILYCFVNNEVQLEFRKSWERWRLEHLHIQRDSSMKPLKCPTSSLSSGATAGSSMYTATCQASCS

Row | Compound | IC50 (human GLP-1 receptor [1]; [3]) [nM] | IC50 (human GLP-1 receptor [1]; [4]) [nM] | EC50 (human GLP-1 receptor [2]) [nM]
1 | CC[C@H](C)[C@H](NC(=O)[C@H](Cc1ccccc1)NC(=O)[C@H](CCC(=O)O)NC(=O)[C@H](CCCNC(=N)N)NC(=O)[C@H](C)NC(=O)[C@H](C)NC(=O)[C@H](CCC(N)=O)NC(=O)[C@H](CCC(=O)O)NC(=O)[C@H](CCC(=O)O)NC(=O)[C@H](CC(C)C)NC(=O)[C@H](Cc1ccc(O)cc1)NC(=O)[C@H](CO)NC(=O)[C@H](CO)NC(=O)[C@@H](NC(=O)[C@H](CC(=O)O)NC(=O)[C@H](CO)NC(=O)[C@@H](NC(=O)[C@H](Cc1ccccc1)NC(=O)[C@@H](NC(=O)CNC(=O)[C@H](CCC(=O)O)NC(=O)C(C)(C)NC(=O)[C@@H](N)Cc1c[nH]cn1)[C@@H](C)O)[C@@H](C)O)C(C)C)C(=O)N[C@@H](C)C(=O)N[C@@H](Cc1c[nH]c2ccccc12)C(=O)N[C@@H](CC(C)C)C(=O)N[C@H](C(=O)N[C@@H](CCCNC(=N)N)C(=O)NCC(=O)N[C@@H](CCCNC(=N)N)C(=O)N[C@@H](CCCCNC(=O)COCCOCCNC(=O)COCCOCCNC(=O)[C@H](CCCCNC(=O)COCCOCCNC(=O)COCCOCCNC(=O)COCCOCCNC(=O)COCCOCCNC(=O)CC[C@H](NC(=O)[C@H]1CC[C@H](CNC(=O)CCCCCCCCCCCCCCCCCCC(=O)O)CC1)C(=O)O)NC(=O)COCCOCCNC(=O)COCCOCCNC(=O)COCCOCCNC(=O)COCCOCCNC(=O)CC[C@H](NC(=O)[C@H]1CC[C@H](CNC(=O)CCCCCCCCCCCCCCCCCCC(=O)O)CC1)C(=O)O)C(=O)O)C(C)C [Comparative 12A] | 42.3 | 0.536 | 0.0137
2 | CC[C@H](C)[C@H](NC(=O)[C@H](Cc1ccccc1)NC(=O)[C@H](CCC(=O)O)NC(=O)[C@H](CCCNC(=N)N)NC(=O)[C@H](C)NC(=O)[C@H](C)NC(=O)[C@H](CCC(N)=O)NC(=O)[C@H](CCC(=O)O)NC(=O)[C@H](CCC(=O)O)NC(=O)[C@H](CC(C)C)NC(=O)[C@H](Cc1ccc(O)cc1)NC(=O)[C@H](CO)NC(=O)[C@H](CO)NC(=O)[C@@H](NC(=O)[C@H](CC(=O)O)NC(=O)[C@H](CO)NC(=O)[C@@H](NC(=O)[C@H](Cc1ccccc1)NC(=O)[C@@H](NC(=O)CNC(=O)[C@H](CCC(=O)O)NC(=O)C(C)(C)NC(=O)[C@@H](N)Cc1c[nH]cn1)[C@@H](C)O)[C@@H](C)O)C(C)C)C(=O)N[C@@H](C)C(=O)N[C@@H](Cc1c[nH]c2ccccc12)C(=O)N[C@@H](CC(C)C)C(=O)N[C@H](C(=O)N[C@@H](CCCNC(=N)N)C(=O)NCC(=O)N[C@@H](CCCNC(=N)N)C(=O)N[C@@H](CCCCNC(=O)COCCOCCNC(=O)COCCOCCNC(=O)CN(CCCNC(=O)COCCOCCNC(=O)COCCOCCNC(=O)COCCOCCNC(=O)COCCOCCNC(=O)CC[C@H](NC(=O)[C@H]1CC[C@H](CNC(=O)CCCCCCCCCCCCCCCCCCC(=O)O)CC1)C(=O)O)CCCNC(=O)COCCOCCNC(=O)COCCOCCNC(=O)COCCOCCNC(=O)COCCOCCNC(=O)CC[C@H](NC(=O)[C@H]1CC[C@H](CNC(=O)CCCCCCCCCCCCCCCCCCC(=O)O)CC1)C(=O)O)C(=O)O)C(C)C [Comparative 13A] | 35.4 | 0.383 | 0.0147
3 | CC[C@H](C)[C@H](NC(=O)[C@H](Cc1ccccc1)NC(=O)[C@H](CCC(=O)O)NC(=O)[C@H](CCCNC(=N)N)NC(=O)[C@H](C)NC(=O)[C@H](C)NC(=O)[C@H](CCC(N)=O)NC(=O)[C@H](CCC(=O)O)NC(=O)[C@H](CCC(=O)O)NC(=O)[C@H](CC(C)C)NC(=O)[C@H](Cc1ccc(O)cc1)NC(=O)[C@H](CO)NC(=O)[C@H](CO)NC(=O)[C@@H](NC(=O)[C@H](CC(=O)O)NC(=O)[C@H](CO)NC(=O)[C@@H](NC(=O)[C@H](Cc1ccccc1)NC(=O)[C@@H](NC(=O)CNC(=O)[C@H](CCC(=O)O)NC(=O)C(C)(C)NC(=O)[C@@H](N)Cc1c[nH]cn1)[C@@H](C)O)[C@@H](C)O)C(C)C)C(=O)N[C@@H](C)C(=O)N[C@@H](Cc1c[nH]c2ccccc12)C(=O)N[C@@H](CC(C)C)C(=O)N[C@H](C(=O)N[C@@H](CCCNC(=N)N)C(=O)NCC(=O)N[C@@H](CCCNC(=N)N)C(=O)N[C@@H](CCCCNC(=O)[C@H](CCCCNC(=O)COCCOCCNC(=O)COCCOCCNC(=O)COCCOCCNC(=O)COCCOCCNC(=O)COCCOCCNC(=O)COCCOCCNC(=O)CC[C@H](NC(=O)[C@H]1CC[C@H](CNC(=O)CCCCCCCCCCCCCCCCCCC(=O)O)CC1)C(=O)O)NC(=O)COCCOCCNC(=O)COCCOCCNC(=O)COCCOCCNC(=O)COCCOCCNC(=O)COCCOCCNC(=O)COCCOCCNC(=O)CC[C@H](NC(=O)[C@H]1CC[C@H](CNC(=O)CCCCCCCCCCCCCCCCCCC(=O)O)CC1)C(=O)O)C(=O)O)C(C)C [Comparative 10A] | 108 | 0.591 | 0.0168
4 | CC[C@H](C)[C@H](NC(=O)[C@H](Cc1ccccc1)NC(=O)[C@H](CCC(=O)O)NC(=O)[C@H](CCCNC(=N)N)NC(=O)[C@H](C)NC(=O)[C@H](C)NC(=O)[C@H](CCC(N)=O)NC(=O)[C@H](CCC(=O)O)NC(=O)[C@H](CCC(=O)O)NC(=O)[C@H](CC(C)C)NC(=O)[C@H](Cc1ccc(O)cc1)NC(=O)[C@H](CO)NC(=O)[C@H](CO)NC(=O)[C@@H](NC(=O)[C@H](CC(=O)O)NC(=O)[C@H](CO)NC(=O)[C@@H](NC(=O)[C@H](Cc1ccccc1)NC(=O)[C@@H](NC(=O)CNC(=O)[C@H](CCC(=O)O)NC(=O)[C@H](Cc1c[nH]c2ccccc12)NC(=O)[C@@H](N)Cc1c[nH]cn1)[C@@H](C)O)[C@@H](C)O)C(C)C)C(=O)N[C@@H](C)C(=O)N[C@@H](Cc1c[nH]c2ccccc12)C(=O)N[C@@H](CC(C)C)C(=O)N[C@H](C(=O)N[C@@H](CCCNC(=N)N)C(=O)NCC(=O)N[C@@H](CCCCNC(=O)COCCOCCNC(=O)COCCOCCNC(=O)COCCOCCNC(=O)COCCOCCNC(=O)CC[C@H](NC(=O)CCCCCCCCCCCCC(=O)O)C(=O)O)C(=O)N[C@@H](CCCCNC(=O)COCCOCCNC(=O)COCCOCCNC(=O)COCCOCCNC(=O)COCCOCCNC(=O)CC[C@H](NC(=O)CCCCCCCCCCCCC(=O)O)C(=O)O)C(=O)O)C(C)C [Example 7] (H-HWEGTFTSDVSSYLEEQAAREFIAWLVRGK([AEEA-AEEA-AEEA-AEEA-γGlu-C14 diacid])K([AEEA-AEEA-AEEA-AEEA-γGlu-C14 diacid])-OH; N-terminus and C-terminus assumed) | 71 |  | 0.0056
5 | CC[C@H](C)[C@H](NC(=O)[C@H](Cc1ccccc1)NC(=O)[C@H](CCC(=O)O)NC(=O)[C@H](CCCNC(=N)N)NC(=O)[C@H](C)NC(=O)[C@H](C)NC(=O)[C@H](CCC(N)=O)NC(=O)[C@H](CCC(=O)O)NC(=O)[C@H](CCC(=O)O)NC(=O)[C@H](CC(C)C)NC(=O)[C@H](Cc1ccc(O)cc1)NC(=O)[C@H](CO)NC(=O)[C@H](CO)NC(=O)[C@@H](NC(=O)[C@H](CC(=O)O)NC(=O)[C@H](CO)NC(=O)[C@@H](NC(=O)[C@H](Cc1ccccc1)NC(=O)[C@@H](NC(=O)CNC(=O)[C@H](CCC(=O)O)NC(=O)C(C)(C)NC(=O)[C@@H](N)Cc1c[nH]cn1)[C@@H](C)O)[C@@H](C)O)C(C)C)C(=O)N[C@@H](C)C(=O)N[C@@H](Cc1c[nH]c2ccccc12)C(=O)N[C@@H](CC(C)C)C(=O)N[C@H](C(=O)N[C@@H](CCCNC(=N)N)C(=O)NCC(=O)N[C@@H](CCCCNC(=O)COCCOCCNC(=O)COCCOCCNC(=O)COCCOCCNC(=O)COCCOCCNC(=O)CC[C@H](NC(=O)CCCCCCCCCCCCC(=O)O)C(=O)O)C(=O)N[C@@H](CCCCNC(=O)COCCOCCNC(=O)COCCOCCNC(=O)COCCOCCNC(=O)COCCOCCNC(=O)CC[C@H](NC(=O)CCCCCCCCCCCCC(=O)O)C(=O)O)C(=O)O)C(C)C [Comparative 7A] | 31.5 | 0.744 | 0.0026
6 | CC[C@H](C)[C@H](NC(=O)[C@H](Cc1ccccc1)NC(=O)[C@H](CCC(=O)O)NC(=O)[C@H](CCCNC(=N)N)NC(=O)[C@H](C)NC(=O)[C@H](C)NC(=O)[C@H](CCC(N)=O)NC(=O)[C@H](CCC(=O)O)NC(=O)[C@H](CCC(=O)O)NC(=O)[C@H](CC(C)C)NC(=O)[C@H](Cc1ccc(O)cc1)NC(=O)[C@H](CO)NC(=O)[C@H](CO)NC(=O)[C@@H](NC(=O)[C@H](CC(=O)O)NC(=O)[C@H](CO)NC(=O)[C@@H](NC(=O)[C@H](Cc1ccccc1)NC(=O)[C@@H](NC(=O)CNC(=O)[C@H](CCC(=O)O)NC(=O)C(C)(C)NC(=O)[C@@H](N)Cc1c[nH]cn1)[C@@H](C)O)[C@@H](C)O)C(C)C)C(=O)N[C@@H](C)C(=O)N[C@@H](Cc1c[nH]c2ccccc12)C(=O)N[C@@H](CC(C)C)C(=O)N[C@H](C(=O)N[C@@H](CCCNC(=N)N)C(=O)NCC(=O)N[C@@H](CCCCNC(=O)COCCOCCNC(=O)COCCOCCNC(=O)CC[C@H](NC(=O)CCCCCCCCCOc1cccc(C(=O)O)c1)C(=O)O)C(=O)N[C@@H](CCCCNC(=O)COCCOCCNC(=O)COCCOCCNC(=O)CC[C@H](NC(=O)CCCCCCCCCOc1cccc(C(=O)O)c1)C(=O)O)C(=O)O)C(C)C [Comparative 1A] | 116 | 0.318 | 0.0081
